Source: patent US20230355647A1, “Marker for determining anti-cancer effects of mitochondrial oxidative phosphorylation pathway inhibitor” (NANJING SHIJIANG MEDICINE TECHNOLOGY CO., LTD, priority 2020, published 2023)

How the values were obtained:
Gp2D = test: Cell viability (CellTiter-Glo), Gp2D; assay type: cell-based; details: Homo sapiens; Gp2D cell line, 3-4 days of culture
Procedure: (§1) Cell viability was detected using the Promega CellTiter-Glo kit, the kit reflected cell viability by directly measuring intracellular ATP content. The inhibitory effect (IC50 value) of Gboxin, a mitochondrial oxidative phosphorylation pathway inhibitor, on different tumor cell lines was tested in the Example. The name, source, and culture condition of each tumor cell line were as follows:
Cell line Gp2D (ECACC, No. 95090714) was cultured in 10% fetal bovine serum-containing DMEM medium (+P/S).
(§2) The above tumor cells were cultured in the relevant medium (+P/S), and incubated for 3 h, then the gradient diluted Gboxin was added, and IC50 (50% inhibiting concentration) was measured after 3-4 days of culture.

[1] = test system: brain tumors and other tumors; details: study published in Nature (2019); cited from earlier work
Daoy = test: Cell viability (CellTiter-Glo), Daoy; assay type: cell-based; details: Homo sapiens; Daoy cell line, 3-4 days of culture
Procedure: as §1
Cell line Daoy (ATCC, No. HTB-186) was cultured in 10% fetal bovine serum-containing EMEM medium (+P/S).
as §2

PANC-1 = test: Cell viability (CellTiter-Glo), PANC-1; assay type: cell-based; details: Homo sapiens; PANC-1 cell line, 3-4 days of culture
Procedure: as §1
Cell line PANC-1 (ATCC, No. CRL-1469) was cultured in 10% fetal bovine serum-containing DMEM medium (+P/S).
as §2

DU 145 = test: Cell viability (CellTiter-Glo), DU 145; assay type: cell-based; details: Homo sapiens; DU 145 cell line, 3-4 days of culture
Procedure: as §1
Cell line DU 145 (ATCC, No. HTB-81) was cultured in 10% fetal bovine serum-containing EMEM medium (+P/S).
as §2

OCI-AML-5 = test: Cell viability (CellTiter-Glo), OCI-AML-5; assay type: cell-based; details: Homo sapiens; OCI-AML-5 cell line, 3-4 days of culture
Procedure: as §1
Cell line OCI-AML-5 (DSMZ, No. ACC-247) was cultured in alpha-MEM medium containing 20% fetal bovine serum and 10% volume fraction of 5637 cell line adjusted medium (+P/S).
as §2

SF126 = test: Cell viability (CellTiter-Glo), SF126; assay type: cell-based; details: Homo sapiens, SF-126; SF126 cell line, 3-4 days of culture
Procedure: as §1, with “follows: Cell line SF126 (JCRB, No. IFO50286) was cultured in 10% fetal bovine serum-containing EMEM medium (+P/S). […] Cell viability was detected using the Promega CellTiter-Glo kit, the kit reflected cell viability by directly measuring intracellular ATP content.” for “follows:”

MDA-MB-231 = test: Cell viability (CellTiter-Glo), MDA-MB-231; assay type: cell-based; details: Homo sapiens; MDA-MB-231 cell line, 3-4 days of culture
Procedure: as §1
Cell line MDA-MB-231 (ATCC, No. HTB-26) was cultured in 10% fetal bovine serum-containing Leibovitz's L-15 medium (+P/S).
as §2

SNU-449 = test: Cell viability (CellTiter-Glo), SNU-449; assay type: cell-based; details: Homo sapiens; SNU-449 cell line, 3-4 days of culture
Procedure: as §1
Cell line SNU-449 (ATCC, No. CRL-2234) was cultured in 10% fetal bovine serum-containing RPMI1640 medium (+P/S).
as §2

NCI-H1155 = test: Cell viability (CellTiter-Glo), NCI-H1155; assay type: cell-based; details: Homo sapiens; NCI-H1155 cell line, 3-4 days of culture
Procedure: as §1
Cell line NCI-H1155 (ATCC, No. CRL-5818) was cultured in serum-free ACL-4 medium (+P/S).
as §2

22RV1 = test: Cell viability (CellTiter-Glo), 22RV1; assay type: cell-based; details: Homo sapiens; 22RV1 cell line, 3-4 days of culture
Procedure: as §1
Cell line 22RV1 (ATCC, No. CRL-2505) was cultured in 10% fetal bovine serum-containing RPMI1640 medium (+P/S).
as §2

H9 = test: Cell viability (CellTiter-Glo), H9; assay type: cell-based; details: Homo sapiens; H9 cell line, 3-4 days of culture
Procedure: as §1
Cell line H9 (ATCC, No. HTB-176) was cultured in 10% fetal bovine serum-containing RPMI1640 medium (+P/S).
as §2

U-87 MG = test: Cell viability (CellTiter-Glo), U-87 MG; assay type: cell-based; details: Homo sapiens; U-87 MG cell line, 3-4 days of culture
Procedure: as §1
Cell line U-87 MG (ATCC, No. HTB-14) was cultured in 10% fetal bovine serum-containing EMEM medium (+P/S).
as §2

CHL-1 = test: Cell viability (CellTiter-Glo), CHL-1; assay type: cell-based; details: Homo sapiens; CHL-1 cell line, 3-4 days of culture
Procedure: as §1
Cell line CHL-1 (ATCC, No. CRL-9446) was cultured in 10% fetal bovine serum-containing DMEM medium (+P/S).
as §2

BT-549 = test: Cell viability (CellTiter-Glo), BT-549; assay type: cell-based; details: Homo sapiens; BT-549 cell line, 3-4 days of culture
Procedure: as §1
Cell line BT-549 (ATCC, No. HTB-122) was cultured in RPMI1640 medium containing 10% fetal bovine serum and 0.023 IU/ml human insulin (+P/S).
as §2

HH = test: Cell viability (CellTiter-Glo), HH; assay type: cell-based; details: Homo sapiens; HH cell line, 3-4 days of culture
Procedure: as §1
Cell line HH (ATCC, No. CRL-2105) was cultured in 10% fetal bovine serum-containing RPMI1640 medium (+P/S).
as §2

HCC70 = test: Cell viability (CellTiter-Glo), HCC70; assay type: cell-based; details: Homo sapiens; HCC70 cell line, 3-4 days of culture
Procedure: as §1
Cell line HCC70 (ATCC, No. CRL-2315) was cultured in 10% fetal bovine serum-containing RPMI1640 medium (+P/S).
as §2

PC-3 = test: Cell viability (CellTiter-Glo), PC-3; assay type: cell-based; details: Homo sapiens; PC-3 cell line, 3-4 days of culture
Procedure: as §1
Cell line PC-3 (ATCC, No. CRL-1435) was cultured in 10% fetal bovine serum-containing F-12K medium (+P/S).
as §2

MJ = test: Cell viability (CellTiter-Glo), MJ; assay type: cell-based; details: Homo sapiens; MJ cell line, 3-4 days of culture
Procedure: as §1
Cell line MJ (ATCC, No. CRL-8294) was cultured 20% fetal bovine serum-containing IMDM medium (+P/S).
as §2

CCc1n(CC(=O)O[C@@H]2C[C@H](C)CC[C@H]2C(C)C)c2ccccc2[n+]1C.[Cl-] [Gboxin]
IC50 (Gp2D): 13.3 µM | killing effect on brain tumors and other tumors [1]: excellent killing effect | IC50 (Daoy): 9.72 µM | IC50 (PANC-1): 12 µM | IC50 (DU 145): 9.91 µM | IC50 (OCI-AML-5): 2.74 µM | IC50 (SF126): > 30 µM | IC50 (MDA-MB-231): 17.8 µM | IC50 (SNU-449): > 30 µM | IC50 (NCI-H1155): 8.84 µM | IC50 (22RV1): 2.53 µM | IC50 (H9): 3.34 µM | IC50 (U-87 MG): 12.3 µM | IC50 (CHL-1): 7.68 µM | IC50 (BT-549): 3.28 µM | IC50 (HH): 2.67 µM | IC50 (HCC70): 11.2 µM | IC50 (PC-3): 21.3 µM | IC50 (MJ): 12.9 µM
